{
  "source": "paper PMC5391603",
  "about": "“Identification and functional characterisation of a Schistosoma japonicum insulin-like peptide” (Parasites & Vectors, 2017)",
  "molecules": {"B1": {"name": "recombinant Schistosoma japonicum insulin-like peptide, C-terminal fragment T31-S130 (domain or fragment)", "chain": "THSLPELQTDYTPINDYPIRMCGNEFLRHLKRVCAIRGIYTPLVRFKRSLEQYYDRILQRGKRFDDLCTLYTIYEPDQVVTKCCCIGCTRSYLEQFCNPS", "modifications": "biotin (NHS-PEO4-biotin kit) where it was immobilised on streptavidin biosensors"}},
  "key": {"[1]": {"assay": "ADP assay (ADP hydrolysis/consumption by proteins)", "format": "biochemical", "settings": "ADP assay kit, protein 0.13 mg/ml, 20 min incubation, ADP 0, 5, 15, 30 μM", "experimental": "To measure the level of hydrolysis of ADP by the schistosome ILP, ADP assay kits (Sigma-Aldrich) were used to measure ADP levels of recombinant schistosome ILPs after their interaction with different concentrations of ADP. ADP levels in various proteins (0.13 mg/ml) were determined following their incubation for 20 min with different concentrations of ADP (0, 5, 15, 30 μM)."}, "[2]": {"tested_on": "Erk (p44/42 MAPK) in adult S. japonicum", "assay": "Erk phosphorylation in adult worms, Western blot with anti-phospho-P44/42 MAPK (Erk1/2) antibody", "format": "cell-based", "text": "It had been shown previously that an anti-phospho-P44/42 MAPK (Erk1/2) antibody could recognize exclusively activated (phosphorylated) forms of this kinase in S. mansoni because of the high sequence homology in key phosphorylation sites between kinases from schistosomes and humans, and because phosphorylation at these sites is vital for enzyme activation. […] Worms from the different groups were then collected for SWAP extraction which was undertaken in the presence of HALT protease/phosphatase inhibitor cocktail (ThermoFisher, Waltham, USA). SDS-PAGE/Western blotting was carried out as described above using the Odyssey system. […] An anti-actin antibody (Sigma-Aldrich) (1:150) was used to assess protein-loading differences. OdysseyClassic 3.0 software was used for Western blot quantification."}, "[3]": {"tested_on": "S. japonicum IRs (SjIR1 and SjIR2)", "set-up": "method as in PMID 25961574", "settings": "ref [18]; cited from earlier work"}, "adult S. japonicum": {"tested_on": "adult S. japonicum", "settings": "in vitro, ref [15], cited from earlier work", "text": "The life-cycle of schistosomes involves snail intermediate hosts and definitive mammalian hosts including humans, in whom schistosomes can survive for decades. Remarkably, the highly sophisticated relationship between schistosomes and their mammalian hosts seems to involve exploitation by these parasites of host endocrine and immune signals. By binding many ligands including hormones, growth factors, cytokines, receptor tyrosine kinases (RTKs), which are high-affinity cell surface receptors, can be activated to trigger different signalling cellular cascades for the regulation ..."}, "[4]": {"target": "recombinant Schistosoma japonicum insulin-like peptide, C-terminal fragment T31-S130 (S. japonicum)", "assay": "BLI; Octet RED, 25 °C; biotinylated rSjILP (150 ng/μl) immobilised on streptavidin biosensors, exposed to rSjLD1 or rSjLD2 (7, 14, 28, 56, 112 ng/μl); kinetic buffer (1 mM phosphate, 15 mM NaCl, 0.1 mg/ml BSA, 0.002% Tween-20); association 1000 s, dissociation 1000 s; BSA as reference"}, "[5]": {"target": "T1, recombinant ligand domain of S. japonicum insulin receptor 1 (S. japonicum, biotin (NHS-PEO4-biotin kit) where it was immobilised on streptavidin biosensors)", "T1 chain": "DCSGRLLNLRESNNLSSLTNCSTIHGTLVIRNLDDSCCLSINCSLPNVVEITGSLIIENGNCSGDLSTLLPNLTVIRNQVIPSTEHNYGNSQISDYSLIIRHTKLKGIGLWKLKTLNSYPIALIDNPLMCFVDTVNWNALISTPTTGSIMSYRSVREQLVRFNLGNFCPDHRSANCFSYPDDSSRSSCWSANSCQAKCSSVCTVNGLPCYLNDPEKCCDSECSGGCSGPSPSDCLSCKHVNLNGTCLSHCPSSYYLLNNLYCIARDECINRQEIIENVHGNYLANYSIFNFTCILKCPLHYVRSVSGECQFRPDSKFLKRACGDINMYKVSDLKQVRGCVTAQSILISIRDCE", "assay": "BLI"}},
  "note": "“Also recorded” adds a separate entry of the source.",
  "data": [
    {"molecule": "human insulin: human insulin (Sigma-Aldrich)", "values": [
      {"measurement": "ADP hydrolysis, result in words", "setting": "[1]", "value": "no ADP binding ability was observed"},
      {"measurement": "reduction of Erk band intensity compared with worms co-stimulated with rSjILP and insulin", "setting": "[2]; human insulin only (1 μM), 30 min, t (6) = 31.39, P = 0.001, experiment performed twice", "value": 58, "unit": "%"},
      {"measurement": "Erk phosphorylation (44 kDa band), result in words", "setting": "[2]; rSjILP 1 μM and/or human insulin 1 μM, 30 min in DMEM, anti-phospho-P44/42 MAPK antibody (1:1,000), experiment performed twice", "value": "The Erk band was also detectable; also recorded: more phosphorylated Erk was observed in worms stimulated with human insulin compared with worms cultured without insulin"},
      {"measurement": "reduction of Erk band intensity in worms without human insulin and rSjILP, compared with insulin only", "setting": "[2]; value is the intensity of untreated worms relative to human insulin only (1 μM), 30 min, t (6) = 4.353, P = 0.049", "value": 30, "unit": "%"},
      {"measurement": "binding of human insulin to SjIR1 and SjIR2, in words", "setting": "[3]", "value": "bind strongly with both SjIR1 and SjIR2"},
      {"measurement": "increase of glucose content of adult female S. japonicum", "setting": "adult S. japonicum; female worms", "value": 2.9, "unit": "fold"},
      {"measurement": "increase of glucose content of adult male S. japonicum", "setting": "adult S. japonicum; male worms", "value": 1.7, "unit": "fold"}
    ]},
    {"molecule": "recombinant ligand domain of S. japonicum insulin receptor 2 (domain or fragment)", "values": [
      {"measurement": "Kd", "setting": "[4]", "value": 0.16, "unit": "nM"}
    ]},
    {"molecule": "recombinant ligand domain of S. japonicum insulin receptor 1 (domain or fragment)", "values": [
      {"measurement": "Kd", "setting": "[4]", "value": 0.226, "unit": "nM"}
    ]},
    {"molecule": "B1", "values": [
      {"measurement": "Kd", "setting": "[5]", "value": 0.255, "unit": "nM"}
    ]}
  ]
}
